From US20210113586A1, “NEW USE AND METHODS OF MODULATING IMMUNE RESPONSES” (DIAMYD MEDICAL AB, priority 2018, published 2021)

Legend:
[1] = test system: PBMCs from T1D individuals; assay: Proliferation of anti-CD3 stimulated PBMCs from T1D donors; assay type: cell-based, human; settings: Example 1, FIG. 1D; PBMCs from all 13 T1D donors; 100 nM GABA
Experimental: (§1) Peripheral Blood Mononuclear cells (PBMCs) are isolated from blood from donors diagnosed with Type-1 diabetes and healthy controls. Alternatively, CD4-positive cells (T-cells) are further isolated from PBMCs by e.g. MACS beads, FACS or similar technology. […] A reasonable replication, such as 3 cultures of each condition, is performed. A normalized proliferation value for each culture is then calculated by a standard proliferation measurement method, such as by CFSE staining or radioactive thymidine incorporation (requiring additional factors be added during culture) or by staining for proliferation markers.
(§2) In the FIG. 1, the proliferation of cells retrieved from 13 T1D subjects and 15 healthy controls were inspected. […] A normalized proliferation index was calculated for each culture.
The proliferation of freshly isolated human PBMCs or CD4^+ T cells was evaluated with MTT (3-(4,5-Dimethylthiazol-2-yl)-2,5-Diphenyltetrazolium Bromide) assay (Ring et al., 2012). Cells were suspended in complete medium (RPMI 1640 supplemented with 2 mM glutamine, 25 mM HEPES, 10% heat inactivated fetal bovine serum, 100 U/ml penicillin, 10 mg/ml streptomycin, 5 mM R-mercaptoethanol) in a concentration 1 million cells per milliliter. The assay was performed in 96-well plates in duplicates or triplicates, where each well was pre-coated with 3 μg/ml anti-CD3 antibody for 3-5 h at 37° C. Each well was loaded with 100,000 cells. Drugs were added to the wells at the relevant concentrations. The plate was incubated for 68 h at 37° C. (95% O2, 5% CO2) and then, a media-soluble tetrazolium dye MTT was added to a final concentration of 1 mM after which the plate was incubated for additional 4 h. The plate was then centrifuged at 2,000 RPM for 10 min to pellet the insoluble purple formazan crystals. The supernatant culture media was collected, stored at −80° C. and used for analysis of cytokines using the multiplex proximity extension assay (PEA). The formazan crystal pellet was dissolved in DMSO and the plate was read within 10 min using a Multiskan MS plate reader (Labsystems) at 550 nm. […]

[2] = test system: non-responder CD4+ T cells; assay: Proliferation of anti-CD3 stimulated GABA non-responder CD4+ T cells from ND individuals; assay type: cell-based, human
Experimental: as §1, §2
The proliferation of freshly isolated human PBMCs or CD4^+ T cells was evaluated with MTT (3-(4,5-Dimethylthiazol-2-yl)-2,5-Diphenyltetrazolium Bromide) assay (Ring et al., 2012). Cells were suspended in complete medium (RPMI 1640 supplemented with 2 mM glutamine, 25 mM HEPES, 10% heat inactivated fetal bovine serum, 100 U/ml penicillin, 10 mg/ml streptomycin, 5 mM R-mercaptoethanol) in a concentration 1 million cells per milliliter. […] The formazan crystal pellet was dissolved in DMSO and the plate was read within 10 min using a Multiskan MS plate reader (Labsystems) at 550 nm. […]

[3] = test system: GABAA receptors; assay: Patch-clamp single-channel current recording in CD4+ T cells; assay type: cell-based, human; settings: GABA 100 or 500 nM; n=54 cells; FIG. 3i
Experimental: GABA-activated currents were recorded by the patch-clamp technique as previously described (Bjurstom et al., 2008, Jin et al., 2011a). Extracellular recording solution contained (in mM): 145 NaCl, 3 KCl, 1 CsCl, 1 CaCl2, 1 MgCl2, 10 glucose and 10 TES; the pH was adjusted to 7.4 with NaOH. To record in the whole-cell configuration, the pipette solution contained (in mM): 136 CsCl, 20 KCl, 1 MgCl2, 3 MgATP and 10 TES; pH was adjusted to 7.3 with CsOH. The pipette solution for the cell-attached configuration contained (in mM): 69 NaCl, 5 KCl, 75 CsCl, 1 CaCl2, 1 MgCl2 and 10 TES; pH was adjusted to 7.4 with NaOH. […] The pipette potential (Vp) was −80 mV (hyperpolarizing) in the whole-cell configuration and −60 mV (depolarizing) in the cell-attached configuration.

[4] = test system: PBMCs from nondiabetic (ND) individuals; settings: GABA 100 nM, normalized to control
Experimental: The proliferation of freshly isolated human PBMCs or CD4^+ T cells was evaluated with MTT (3-(4,5-Dimethylthiazol-2-yl)-2,5-Diphenyltetrazolium Bromide) assay (Ring et al., 2012). Cells were suspended in complete medium (RPMI 1640 supplemented with 2 mM glutamine, 25 mM HEPES, 10% heat inactivated fetal bovine serum, 100 U/ml penicillin, 10 mg/ml streptomycin, 5 mM R-mercaptoethanol) in a concentration 1 million cells per milliliter. The assay was performed in 96-well plates in duplicates or triplicates, where each well was pre-coated with 3 μg/ml anti-CD3 antibody for 3-5 h at 37° C. Each well was loaded with 100,000 cells. Drugs were added to the wells at the relevant concentrations. The plate was incubated for 68 h at 37° C. (95% O2, 5% CO2) and then, a media-soluble tetrazolium dye MTT was added to a final concentration of 1 mM after which the plate was incubated for additional 4 h. The plate was then centrifuged at 2,000 RPM for 10 min to pellet the insoluble purple formazan crystals. The supernatant culture media was collected, stored at −80° C. and used for analysis of cytokines using the multiplex proximity extension assay (PEA). The formazan crystal pellet was dissolved in DMSO and the plate was read within 10 min using a Multiskan MS plate reader (Labsystems) at 550 nm. The optical density value was used as the proliferation index value. Drugs were purchased from Sigma-Aldrich or Tocris (Bristol, UK).
Plasma samples, and culture media samples that were collected from plate wells at the end of the proliferation assay, were analyzed by multiplex PEA with an Olink Inflammation […] panel, targeting 92 proteins related to inflammation (Olink Proteomics, Uppsala, Sweden) as previously described (Edvinsson et al., 2017, Assarsson et al., 2014, Larsson et al., 2015, Larssen et al., 2017). Briefly, 1 μl of sample (plasma samples or cell culture media samples) or negative control was mixed with 3 μl probe solution containing a set of 92 paires DNA-oligonucleotide-conjugated antibodies. Upon recognition of a target protein by a pair of probes, the DNA oligonucletodies on the antibodies are brought in proximity and hybridize to each other, followed by enzymatic DNA polymerization to form a new DNA molecule. The newly formed DNA molecule is then amplified and quantified using a microfluidic real-time qPCR, BioMark™ HD (Fluidigm, South San Francisco, Calif., USA). The generated quantification cycle (Cq) values are normalized against spiked-in controls to convert Cq values to Normalized Protein eXpression (NPX) value on log2 scale. NPX is an arbitrary unit, which is positively correlated to protein concentration. These NPX data were then converted to linear data, using the formula 2^NPX, prior to further statistical analysis. Limit of detection (LOD) for each protein was defined as three standard deviations above the background. Proteins with levels below LOD were excluded from further data analysis.

For `NCCCC(=O)O` [GABA, gamma-aminobutyric acid], the “proliferation in the presence of GABA” value [1] was “proliferated less”, the “proliferation in the presence of GABA” value ([2]; Example 1, FIG. 1A, CD4-positive cells from 5 healthy donors, 100 nM GABA) was “did not proliferate less” and the “decrease of proliferation by GABA” value ([2]; Example 2, non-responder T cell population) was “did not decrease”. For the same compound, the GABAA single-channel currents [3] was “activated”, the “AXIN1 in culture medium, % Mean” value [4] was 82.3% and the “CCL4 in culture medium, % Mean” value [4] was 95.3%. The “CD244 in culture medium, % Mean” value [4] was 92.5%, the “CXCL9 in culture medium, % Mean” value [4] was 81.3% and the “IL-12B in culture medium, % Mean” value [4] was 84.8%. The “IL-18R1 in culture medium, % Mean” value [4] was 90.7%, the “LIF in culture medium, % Mean” value [4] was 88.5% and the “OPG in culture medium, % Mean” value [4] was 81.8%. The “OSM in culture medium, % Mean” value [4] was 88.1%, the “PD-L1 in culture medium, % Mean” value [4] was 87.8% and the “SIRT2 in culture medium, % Mean” value [4] was 81.6%. The “TNF in culture medium, % Mean” value [4] was 74.1%, the “TNFB in culture medium, % Mean” value [4] was 95.7% and the “TNFRSF9 in culture medium, % Mean” value [4] was 99.6%. For the same compound, the “TNFSF14 in culture medium, % Mean” value [4] was 89.2% and the “TWEAK in culture medium, % Mean” value [4] was 86.3%.
